Values quoted from earlier work as cited in patent US20080312245A1, “Methods and compositions for treating acne and other infectious diseases” (priority 2007, published 2008).

- solubility in alcohol: slightly soluble
SMILES: Cc1ncc([N+](=O)[O-])n1CCO [Metronidazole, 2-methyl-5-nitro-1H-imidazole-1-ethanol]
